From PubChem BioAssay AID328 (DTP/NCI, 2004) come the findings set out here.

In this assay the test system is BDF1 mice, P388 leukemia ip, median survival T/C. In words: NCI In Vivo Anticancer Drug Screen. Data for tumor model P388 Leukemia (intraperitoneal) in B6D2F1 (BDF1) mice. Particulars: endpoint: median survival time, higher = longer survival. The method in brief: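 Mice carrying the transplantable tumour receive compound or vehicle. Survival is followed in each arm, and the treated measure is divided by the vehicle measure.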

Setting [1] is: dose: 50.0 mg/kg/injection, schedule: Q01DX009 (ip), vehicle: Klucel (hydroxypropylcellulose) (HPC).
[2] abbreviates: dose: 100.0 mg/kg/injection, schedule: Q04DX003 (ip), vehicle: Klucel (hydroxypropylcellulose) (HPC).
Setting [3] is: dose: 200.0 mg/kg/injection, schedule: Q04DX003 (ip), vehicle: Klucel (hydroxypropylcellulose) (HPC).
The mark [4] stands for this setting: dose: 25.0 mg/kg/injection, schedule: Q01DX009 (ip), vehicle: saline with Tween-80.
Setting [5] is: dose: 50.0 mg/kg/injection, schedule: Q01DX009 (ip), vehicle: saline with Tween-80.
Where [6] appears, read: dose: 50.0 mg/kg/injection, schedule: Q01DX009 (ip), vehicle: other.
[7] abbreviates: dose: 100.0 mg/kg/injection, schedule: Q01DX009 (ip), vehicle: other.
Setting [8] is: dose: 200.0 mg/kg/injection, schedule: Q01DX009 (ip), vehicle: other.
Setting [9] is: dose: 100.0 mg/kg/injection, schedule: Q01DX001 (ip), vehicle: saline sonified.
Where [10] appears, read: dose: 400.0 mg/kg/injection, schedule: Q01DX001 (ip), vehicle: saline sonified.
The mark [11] stands for this setting: dose: 6.25 mg/kg/injection, schedule: Q01DX009 (ip), vehicle: saline.
Setting [12] is: dose: 100.0 mg/kg/injection, schedule: Q04DX003 (ip), vehicle: saline with Tween-80.
The mark [13] stands for this setting: dose: 200.0 mg/kg/injection, schedule: Q04DX003 (ip), vehicle: saline with Tween-80.
[14] abbreviates: dose: 400.0 mg/kg/injection, schedule: Q04DX003 (ip), vehicle: saline with Tween-80.

Where “and” joins values, the source holds several entries; their conditions need not be identical. Equal entries are not always repeated. Inconclusive results and toxic doses are left out.

As for `NC(CSCc1ccc(N(CCCl)CCCl)cc1)C(=O)O` (stereo unspecified), the T/C was 95 % of control (dose: 1.2 mg/kg/injection, schedule: Q04DX003 (ip), vehicle: Klucel (hydroxypropylcellulose) (HPC)); 154 % of control (dose: 2.6 mg/kg/injection, schedule: Q04DX003 (ip), vehicle: Klucel (hydroxypropylcellulose) (HPC)); 183 % of control (dose: 4.0 mg/kg/injection, schedule: Q01DX009 (ip), vehicle: saline with Tween-80); 206 % of control (dose: 6.0 mg/kg/injection, schedule: Q01DX009 (ip), vehicle: saline with Tween-80); 154 % of control (dose: 6.0 mg/kg/injection, schedule: Q04DX003 (ip), vehicle: Klucel (hydroxypropylcellulose) (HPC)); 223 % of control (dose: 9.0 mg/kg/injection, schedule: Q01DX009 (ip), vehicle: saline with Tween-80). Besides, the T/C was 190 % of control (dose: 13.0 mg/kg/injection, schedule: Q04DX003 (ip), vehicle: Klucel (hydroxypropylcellulose) (HPC)); 204 % of control (dose: 20.0 mg/kg/injection, schedule: Q04DX003 (ip), vehicle: Klucel (hydroxypropylcellulose) (HPC)); 272 % of control (dose: 22.0 mg/kg/injection, schedule: Q01DX009 (ip), vehicle: Klucel (hydroxypropylcellulose) (HPC)); 238 % of control and 272 % of control (dose: 30.0 mg/kg/injection, schedule: Q04DX003 (ip), vehicle: Klucel (hydroxypropylcellulose) (HPC)); 231 % of control (dose: 33.0 mg/kg/injection, schedule: Q01DX009 (ip), vehicle: Klucel (hydroxypropylcellulose) (HPC)); 238 % of control (dose: 44.0 mg/kg/injection, schedule: Q04DX003 (ip), vehicle: Klucel (hydroxypropylcellulose) (HPC)). Moreover, the T/C is 240 % of control and 250 % of control under setting [1]; 235 % of control and 223 % of control (dose: 67.0 mg/kg/injection, schedule: Q04DX003 (ip), vehicle: Klucel (hydroxypropylcellulose) (HPC)); 104 % of control (dose: 75.0 mg/kg/injection, schedule: Q01DX009 (ip), vehicle: Klucel (hydroxypropylcellulose) (HPC)); 220 % of control under setting [2]; 160 % of control (dose: 150.0 mg/kg/injection, schedule: Q04DX003 (ip), vehicle: Klucel (hydroxypropylcellulose) (HPC)).

For the molecule `CNC(=S)/N=C(\N)n1nc(C)cc1C`, the T/C was 104 % of control (dose: 15.0 mg/kg/injection, schedule: Q01DX009 (ip), vehicle: saline with Tween-80); 112 % of control (dose: 30.0 mg/kg/injection, schedule: Q01DX009 (ip), vehicle: saline with Tween-80); 112 % of control (dose: 60.0 mg/kg/injection, schedule: Q01DX009 (ip), vehicle: saline with Tween-80).

For `CN(C)c1ccc(C=O)cc1[N+](=O)[O-]`, the T/C (dose: 50.0 mg/kg/injection, schedule: Q04DX003 (ip), vehicle: Klucel (hydroxypropylcellulose) (HPC)) was 113 % of control; the T/C under setting [2] was 113 % of control; the T/C under setting [3] was 104 % of control.

For `Nc1cccc(NC=O)c1`, the T/C was 100 % of control (dose: 12.5 mg/kg/injection, schedule: Q01DX009 (ip), vehicle: saline with Tween-80); 108 % of control under setting [4]; 95 % of control under setting [5].

As for `CCN(CC)CCCC(C)Nc1c2ccccc2nc2c(Cl)cccc12` (stereo unspecified), the T/C is, setting by setting: (dose: 25.0 mg/kg/injection, schedule: Q01DX009 (ip), vehicle: saline sonified) 88 % of control; (dose: 50.0 mg/kg/injection, schedule: Q01DX009 (ip), vehicle: saline sonified) 94 % of control.

Consider `OCc1ccccc1[S+]1OCc2ccccc21` (stereo unspecified), for which the T/C runs as follows: under setting [6], 104 % of control; under setting [7], 97 % of control; under setting [8], 108 % of control.

Consider `c1cc2cnc3cccc4cnc(c1)c2c43`, for which the T/C reads like this: under setting [9], 100 % of control; under setting [10], 100 % of control.

With `COc1cc2ccc3c(c2cc1OC)C=NCC3`, the T/C (dose: 1.56 mg/kg/injection, schedule: Q01DX009 (ip), vehicle: saline) was 100 % of control; the T/C (dose: 1.56 mg/kg/injection, schedule: Q04DX003 (ip), vehicle: saline) was 95 % of control; the T/C (dose: 3.13 mg/kg/injection, schedule: Q01DX009 (ip), vehicle: saline) is 110 % of control; the T/C (dose: 3.13 mg/kg/injection, schedule: Q04DX003 (ip), vehicle: saline) was 100 % of control; the T/C under setting [11] is 110 % of control; the T/C (dose: 6.25 mg/kg/injection, schedule: Q04DX003 (ip), vehicle: saline) was 104 % of control.

Consider `CCOC(=O)Oc1c(OC)cc(C(=O)O[C@@H]2C[C@@H]3CN4CCc5c([nH]c6cc(OC)ccc56)[C@H]4C[C@@H]3[C@H](C(=O)OC)[C@H]2OC)cc1OC`, for which the T/C under setting [4] was 100 % of control.

Take `CN=C(N)c1ccc(N=C(N)c2ccc(N=C(N)c3ccc(C(N)=NC)cc3)cc2)cc1`: the T/C reads like this: (dose: 10.0 mg/kg/injection, schedule: Q04DX003 (ip), vehicle: saline) 104 % of control; (dose: 20.0 mg/kg/injection, schedule: Q04DX003 (ip), vehicle: saline) 104 % of control; (dose: 40.0 mg/kg/injection, schedule: Q04DX003 (ip), vehicle: saline) 116 % of control.

With `CC(=O)c1ccc(F)c(C)c1`, the T/C is, setting by setting: under setting [9], 105 % of control; (dose: 200.0 mg/kg/injection, schedule: Q01DX001 (ip), vehicle: saline sonified) 110 % of control; under setting [10], 105 % of control.

As for `CCOC(=O)c1c(NC(=O)CCC(=O)Nc2sc(C)c(C)c2C(=O)OCC)sc(C)c1C`, the T/C is, setting by setting: under setting [4], 109 % of control; under setting [5], 90 % of control; (dose: 50.0 mg/kg/injection, schedule: Q04DX003 (ip), vehicle: saline) 87 % of control; (dose: 100.0 mg/kg/injection, schedule: Q01DX009 (ip), vehicle: saline with Tween-80) 90 % of control; (dose: 400.0 mg/kg/injection, schedule: Q04DX003 (ip), vehicle: saline) 91 % of control.

With `CCOC(=O)C(=CN1CCCC1)C(=O)OCC`, the T/C under setting [12] is 100 % of control, the T/C under setting [13] was 100 % of control and the T/C under setting [14] is 109 % of control.

With `CCC(=O)c1ccc(OCC(O)CN2CCN(c3ccccc3OC)CC2)cc1` (stereo unspecified), the T/C runs as follows: under setting [12], 104 % of control; under setting [13], 104 % of control; under setting [14], 119 % of control.

Regarding `Oc1cccnc1CN1CCCCC1`, the T/C by setting is: under setting [11], 103 % of control; (dose: 12.5 mg/kg/injection, schedule: Q01DX009 (ip), vehicle: saline) 111 % of control; (dose: 25.0 mg/kg/injection, schedule: Q01DX009 (ip), vehicle: saline) 107 % of control; (dose: 50.0 mg/kg/injection, schedule: Q01DX009 (ip), vehicle: saline) 88 % of control.

`COc1cc(C=Nc2ccc(-n3ccnc3C)cc2)ccc1N(CCCl)CCCl`: the T/C was 157 % of control (dose: 5.0 mg/kg/injection, schedule: Q01DX009 (ip), vehicle: Klucel (hydroxypropylcellulose) (HPC)) and 162 % of control (dose: 7.5 mg/kg/injection, schedule: Q01DX009 (ip), vehicle: Klucel (hydroxypropylcellulose) (HPC)).

Regarding `COCCOCCN1CCN(CCCN2c3ccccc3Sc3ccc(C(F)(F)F)cc32)CC1`, the T/C reads like this: (dose: 12.5 mg/kg/injection, schedule: Q04DX003 (ip), vehicle: saline) 112 % of control; (dose: 25.0 mg/kg/injection, schedule: Q04DX003 (ip), vehicle: saline) 108 % of control.

Regarding `O=[N+]([O-])c1cc([N+](=O)[O-])c(NN(c2ccc(Cl)cc2)c2ccc(Cl)cc2)c([N+](=O)[O-])c1`, the T/C by setting is: under setting [1], 109 % of control; (dose: 100.0 mg/kg/injection, schedule: Q01DX009 (ip), vehicle: Klucel (hydroxypropylcellulose) (HPC)) 113 % of control; under setting [2], 118 % of control; under setting [3], 118 % of control.

For `C=CC1C2CCC(C2)C1Cl` (stereo unspecified), the T/C is, setting by setting: under setting [6], 100 % of control; under setting [7], 104 % of control; under setting [8], 107 % of control.

For the molecule `C[N+](C)(Cc1ccccc1)/N=C(\[O-])Cc1ccccc1`, the T/C is 109 % of control (dose: 50.0 mg/kg/injection, schedule: Q01DX001 (ip), vehicle: saline) and 104 % of control (dose: 100.0 mg/kg/injection, schedule: Q01DX001 (ip), vehicle: saline).

For the molecule `COC(=O)Nc1cccc(NC(=O)C(=O)O)c1`, the T/C is 100 % of control (dose: 50.0 mg/kg/injection, schedule: Q04DX003 (ip), vehicle: saline with Tween-80) and 100 % of control under setting [12].
